Results: PubChem BioAssay (NCI)
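Where inhibition never reached the appropriate level, the endpoint shown equals the highest concentration tested. Otherwise, values were interpolated linearly from a five-concentration, 48-hour dose response in 96-well plates. GI50 = concentration required for 50% inhibition of growth. TGI marks complete inhibition of growth.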

Key:
Experiment in all cases: DTP human tumour cell line panel, 48 h
[1] = tested on: A549 NSCLC
[2] = tested on: CAKI-1 renal
[3] = tested on: EKVX NSCLC
[4] = tested on: HCT-116 colon
[5] = tested on: KM12 colon
[6] = tested on: MDA-MB-435
[7] = tested on: NCI/ADR-RES ovarian
[8] = tested on: OVCAR-4 ovarian
[9] = tested on: SR leukemia
[10] = tested on: U251 CNS

SMILES | GI50 [1] | TGI [1] | GI50 [2] | TGI [2] | GI50 [3] | TGI [3] | GI50 [4] | TGI [4] | GI50 [5] | TGI [5] | GI50 [6] | TGI [6] | GI50 [7] | TGI [7] | GI50 [8] | TGI [8] | GI50 [9] | TGI [9] | GI50 [10] | TGI [10]
N#CC1C(=O)NC(c2ccccc2[N+](=O)[O-])c2sc3c(F)cccc3c21 (stereo not given) | 1.72 µM | 36.1 µM | 0.242 µM | 5.43 µM | 3.41 µM | 41.8 µM | 0.138 µM | 11.9 µM | 20 µM | 51.4 µM | 23.2 µM | > 83.9 µM | 8.06 µM | 39.8 µM | 1.5 µM | 44.7 µM | 7.86 µM | > 65.4 µM | 1.16 µM | 62.6 µM
C=CCc1c(O)c(C(=O)/C=C/c2ccccc2)c(OC)c2ccoc12 | 4.41 µM | 22.1 µM | 2.8 µM | 11 µM | 6.13 µM | 20.6 µM | 3.03 µM | 11.1 µM | 4.06 µM | 13.6 µM | 2.78 µM | 10.9 µM | 1.88 µM | 4.91 µM | 2.89 µM | 12.8 µM | 2.15 µM | 6.05 µM | 2.36 µM | 7.46 µM
O=c1c(Cl)cc2nc3ccccc3sc-2c1Cl | – | 40.9 µM | – | 37.8 µM | – | 14.9 µM | – | 32.5 µM | – | 38.4 µM | – | 7.8 µM | – | 56.9 µM | – | 27.4 µM | – | 30 µM | – | 43.2 µM
COc1ccc2c(c1)C(=O)c1c-2c(Nc2cccc(C(C)=O)c2)nc2ccccc12 | 17.7 µM | 40.5 µM | 20.3 µM | 43.6 µM | 12.5 µM | 32.1 µM | 2.64 µM | 10.9 µM | 27 µM | > 100 µM | 30.8 µM | > 100 µM | 8.66 µM | 28.3 µM | 15.5 µM | > 100 µM | 21.6 µM | > 100 µM | 3.09 µM | 12.3 µM
COc1cnc2c(c1)C(=O)c1c-2n(CCCN2CCNCC2)c(=O)c2cc([N+](=O)[O-])ccc12 | 0.0699 µM | 1.5 µM | 0.202 µM | 1.71 µM | 1.29 µM | 2.69 µM | 0.096 µM | 1.78 µM | 0.38 µM | 1.77 µM | 1.25 µM | 2.68 µM | 1.11 µM | 2.8 µM | 1.24 µM | 3.01 µM | 0.0424 µM | 1.9 µM | 0.167 µM | 1.16 µM
CN(C)CCNC(=O)NC[C@H]1CC[C@@H]2[C@H](O1)c1cc(C(F)(F)F)ccc1N[C@H]2c1ccccc1 | 0.175 µM | 17.4 µM | 4.74 µM | > 68.2 µM | 11.1 µM | > 100 µM | 0.0414 µM | 14.7 µM | 0.296 µM | 14.6 µM | 0.0278 µM | 0.0718 µM | 5.99 µM | > 100 µM | 3.03 µM | 22.2 µM | 0.0411 µM | 15.1 µM | 0.0537 µM | 1.69 µM
